The compounds below were run against T1, CDK12 complexed with Cyclin K (Homo sapiens, UniProt Q9NYV4) (assay: CDK Enzymatic Assays (HTRF, LANCE Ultra kinase assay), Example A1). Conditions: enzyme pre-incubated with compounds for 60 minutes prior to addition of ATP (1 mM final) and Ulight-peptide; reaction 60-90 minutes at room temperature.
T1 construct: GST (N)
Type: biochemical
Description: Example A1. CDK Enzymatic Assays
The following activity of the CDK enzymes in complex with their respective cyclins we assayed: CDK1 complexed with Cyclin B1; CDK2 complexed with Cyclin E1; CDK4 complexed with Cyclin D1; CDK6 complexed with Cyclin D1; CDK6 complexed with Cyclin D3; CDK9 complexed with Cyclin T1; CDK7 complexed with Cyclin H/MAT1; CDK2 complexed with Cyclin A2; CDK5 complexed with p35; CDK12 complexed with Cyclin K; CDK13 complexed with Cyclin K. These in vitro enzyme activity are assayed using homogeneous time-resolved energy transfer (HTRF), which measures phosphorylation of a peptide substrate. The LANCER Ultra kinase assay (PerkinElmer) uses a ULight™-labeled EIF4E-binding protein 1 (THR37/46) peptide (DYSTTPGGTLFSTTPGTRI (SEQ ID NO: 1)) substrate and a Europium-labeled anti-phospho-4E-BP1 antibody (CDK2, CDK1, CDK4, CDK6, CDK9, CDK12, CDK13) or ULight™-labeled Myelin Basic Protein peptide (VTPRTPPP (SEQ ID NO: 2)) substrate and a Europium-labeled anti-phospho-MBP antibody (CDK7). Each CDK enzyme activity assays utilized human CDK co-expressed as N-terminal GST-tagged protein with its full length cyclin partner using a baculovirus expression system.
Enzyme was pre-incubated with compounds for 30 minutes (CDK1,2,4,6,9) or 60 minutes (CDK7, CDK12, CDK13) prior to addition of ATP and Ulight-peptide (1 mM and 50 nM final, respectively), in assay buffer containing 50 mM HEPES pH 7.5, 1 mM EGTA, 10 mM MgCl2, 2 mM DTT, 0.05 mg/mL BSA, and 0.01% Tween 20. The reaction was then incubated for 60-90 minutes at room temperature. The reactions were stopped by the addition of EDTA and Europium labeled antibody, for a final concentration of 15 mM and 1.0-1.5 nM, respectively. HTRF signals were read after 15-120 minutes. A ratio of fluorescence transferred to the labeled substrate (665 nm) relative to fluorescence of the Europium donor (620 nm) represents the extent of phosphorylation. Ratios for treated wells were normalized to DMSO only (100% activity) and no enzyme (0% activity) controls. Normalized data was analyzed using a three or four parameter dose response curve to determine IC50 for each compound and are shown in Table A. Control reference inhibitors were included on each plate.

T1 sequence (Q9NYV4 whole entry): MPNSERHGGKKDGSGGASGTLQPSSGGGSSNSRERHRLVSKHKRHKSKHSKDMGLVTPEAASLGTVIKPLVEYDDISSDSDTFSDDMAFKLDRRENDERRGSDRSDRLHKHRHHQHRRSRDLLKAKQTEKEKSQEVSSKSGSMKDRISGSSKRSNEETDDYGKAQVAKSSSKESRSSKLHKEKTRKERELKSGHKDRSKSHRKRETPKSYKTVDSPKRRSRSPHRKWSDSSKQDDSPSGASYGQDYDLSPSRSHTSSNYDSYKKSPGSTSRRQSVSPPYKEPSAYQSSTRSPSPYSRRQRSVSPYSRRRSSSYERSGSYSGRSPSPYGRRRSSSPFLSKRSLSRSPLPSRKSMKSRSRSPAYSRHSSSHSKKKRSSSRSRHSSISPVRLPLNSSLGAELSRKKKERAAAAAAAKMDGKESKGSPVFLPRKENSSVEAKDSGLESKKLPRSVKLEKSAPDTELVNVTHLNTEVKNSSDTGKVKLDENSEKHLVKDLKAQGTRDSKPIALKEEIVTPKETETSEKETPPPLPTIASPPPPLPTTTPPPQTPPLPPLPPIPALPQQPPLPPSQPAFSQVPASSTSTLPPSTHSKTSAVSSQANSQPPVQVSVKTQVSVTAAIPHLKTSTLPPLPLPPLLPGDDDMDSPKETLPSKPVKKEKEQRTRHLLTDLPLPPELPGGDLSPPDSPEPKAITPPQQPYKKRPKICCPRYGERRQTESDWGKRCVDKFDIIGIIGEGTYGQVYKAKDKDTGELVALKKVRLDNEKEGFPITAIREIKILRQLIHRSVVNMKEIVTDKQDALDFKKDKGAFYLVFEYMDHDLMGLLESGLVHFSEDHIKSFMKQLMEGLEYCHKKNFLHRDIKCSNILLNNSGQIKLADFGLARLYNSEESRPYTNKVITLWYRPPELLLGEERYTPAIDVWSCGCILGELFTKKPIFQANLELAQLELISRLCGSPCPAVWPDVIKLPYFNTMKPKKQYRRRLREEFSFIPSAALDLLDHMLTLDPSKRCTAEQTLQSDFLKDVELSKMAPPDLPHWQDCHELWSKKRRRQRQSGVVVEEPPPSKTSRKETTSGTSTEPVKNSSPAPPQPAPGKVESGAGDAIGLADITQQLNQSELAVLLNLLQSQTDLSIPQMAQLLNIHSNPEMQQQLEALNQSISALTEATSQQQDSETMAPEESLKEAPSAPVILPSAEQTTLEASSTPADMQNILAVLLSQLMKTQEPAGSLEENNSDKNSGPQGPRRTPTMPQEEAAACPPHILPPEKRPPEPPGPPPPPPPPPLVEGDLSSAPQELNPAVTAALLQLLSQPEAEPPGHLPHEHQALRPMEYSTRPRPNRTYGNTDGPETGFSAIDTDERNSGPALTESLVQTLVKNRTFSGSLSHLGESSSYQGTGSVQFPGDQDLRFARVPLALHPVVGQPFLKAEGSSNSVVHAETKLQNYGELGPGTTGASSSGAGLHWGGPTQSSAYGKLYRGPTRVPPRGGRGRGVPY
T1 sequence (O75909 whole entry partner): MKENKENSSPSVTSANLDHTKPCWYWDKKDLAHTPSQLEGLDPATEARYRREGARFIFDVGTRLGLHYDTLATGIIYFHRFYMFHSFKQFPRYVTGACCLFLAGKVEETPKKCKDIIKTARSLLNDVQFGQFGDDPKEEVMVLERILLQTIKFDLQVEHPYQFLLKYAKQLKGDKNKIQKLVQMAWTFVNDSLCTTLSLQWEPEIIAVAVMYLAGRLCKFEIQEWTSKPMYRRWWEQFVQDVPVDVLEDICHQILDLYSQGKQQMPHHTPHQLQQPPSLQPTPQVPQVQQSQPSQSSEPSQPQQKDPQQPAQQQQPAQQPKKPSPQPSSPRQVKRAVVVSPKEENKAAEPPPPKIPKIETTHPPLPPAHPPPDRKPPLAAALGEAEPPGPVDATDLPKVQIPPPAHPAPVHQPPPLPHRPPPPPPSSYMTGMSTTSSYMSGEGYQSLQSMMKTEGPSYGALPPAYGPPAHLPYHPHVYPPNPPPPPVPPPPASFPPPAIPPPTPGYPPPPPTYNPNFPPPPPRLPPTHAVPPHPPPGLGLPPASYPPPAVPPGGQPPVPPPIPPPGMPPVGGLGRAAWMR

SMILES	IC50 [nM]
C=CC(=O)Nc1ccc2c(c1)C(=O)N([C@H]1CCC[C@@H](Nc3ncc(-c4cnn(C)c4)cn3)C1)C2 [Example 8, N-(2-((1S,3R)-3-((5-(1-Methyl-1H-pyrazol-4-yl)pyrimidin-2-yl)amino)cyclohexyl)-3-oxoisoindolin-5-yl)acrylamide]	> 500
C=CC(=O)Nc1c(C)nc2c(N3CCC[C@@H](Nc4ncc(C#N)c(OC)n4)C3)nccn12 [Example 14, (R)—N-(8-(3-((5-Cyano-4-methoxypyrimidin-2-yl)amino)piperidin-1-yl)-2-methylimidazo[1,2-a]pyrazin-3-yl)acrylamide]	< 50
CCC(Br)C(=O)Nc1nn(C)c2cc(N3CCC[C@@H](Nc4ncc(C#N)c(OC)n4)C3)ncc12 (stereo partly drawn) [Example 31, 2-Bromo-N-(6-((R)-3-((5-cyano-4-methoxypyrimidin-2-yl)amino)piperidin-1-yl)-1-methyl-1H-pyrazolo[4,3-c]pyridin-3-yl)butanamide]	< 50
C=CC(=O)Nc1ccc2c(c1)C(=O)N([C@H]1CCC[C@@H](Nc3ncc(OC(F)F)cn3)C1)C2 [Example 6, N-(2-((1S,3R)-3-((5-(Difluoromethoxy)pyrimidin-2-yl)amino)cyclohexyl)-3-oxoisoindolin-5-yl)acrylamide]	< 50
CCC(Br)C(=O)Nc1ccc2c(c1)nc([C@H]1CCC[C@@H](Nc3ncc(C#N)c(OC)n3)C1)n2C (stereo partly drawn) [Example 49, 2-Bromo-N-(2-((1S,3R)-3-((5-cyano-4-methoxypyrimidin-2-yl)amino)cyclohexyl)-1-methyl-1H-benzo[d]imidazol-5-yl)butanamide]	< 50
C=CC(=O)Nc1ccc2c(c1)C(=O)N([C@H]1CCC[C@@H](Nc3ncc(C(F)(F)F)s3)C1)C2 [Example 29, N-(3-Oxo-2-((1S,3R)-3-((5-(trifluoromethyl)thiazol-2-yl)amino)cyclohexyl)isoindolin-5-yl)acrylamide]	< 50
C=CC(=O)Nc1ccc2sc(N3CCC[C@@H](Nc4ncc(C#N)c(OC)n4)C3)nc2c1 [Example 40, (R)—N-(2-(3-((5-Cyano-4-methoxypyrimidin-2-yl)amino)piperidin-1-yl)benzo[d]thiazol-5-yl)acrylamide]	< 50
C=CC(=O)Nc1ccc2c(cnn2[C@H]2CCC[C@@H](Nc3ncc(C#N)c(OC)n3)C2)c1 [Example 25, N-(1-((1S,3R)-3-((5-Cyano-4-methoxypyrimidin-2-yl)amino)cyclohexyl)-1H-indazol-5-yl)acrylamide]	50 to 500
C=CC(=O)Nc1ccc2c(ccn2[C@H]2CCC[C@@H](Nc3ncc(C#N)c(OC)n3)C2)c1 [Example 26, N-(1-((1S,3R)-3-((5-Cyano-4-methoxypyrimidin-2-yl)amino)cyclohexyl)-1H-indol-5-yl)acrylamide]	> 500
COc1nc(N[C@@H]2CCC[C@H](N3Cc4ccc(NC(=O)CBr)cc4C3=O)C2)ncc1C#N [Example 58, 2-Bromo-N-(2-((1S,3R)-3-((5-cyano-4-methoxypyrimidin-2-yl)amino)cyclohexyl)-3-oxoisoindolin-5-yl)acetamide]	< 50
C=C(F)C(=O)Nc1ccc2c(c1)nc([C@H]1CCC[C@@H](Nc3ncc(C#N)c(OC)n3)C1)n2C [Example 53, N-(2-((1S,3R)-3-((5-Cyano-4-methoxypyrimidin-2-yl)amino)cyclohexyl)-1-methyl-1H-benzo[d]imidazol-5-yl)-2-fluoroacrylamide]	50 to 500
C=CC(=O)Nc1ccc2nc(N3CC[C@@H](Nc4ncc(C#N)c(OC)n4)C3)nn2c1 [Example 45, (R)—N-(2-(3-((5-Cyano-4-methoxypyrimidin-2-yl)amino)pyrrolidin-1-yl)-[1,2,4]triazolo[1,5-a]pyridin-6-yl)acrylamide]	< 50
C=CC(=O)Nc1ccc2c(N3CCC[C@@H](Nc4ncc(C#N)c(OC)n4)C3)csc2c1 [Example 42, (R)—N-(3-(3-((5-Cyano-4-methoxypyrimidin-2-yl)amino)piperidin-1-yl)benzo[b]thiophen-6-yl)acrylamide]	50 to 500
COc1nc(N[C@@H]2CCC[C@H](c3nc4cc(NC(=O)C5OC5C(=O)O)ccc4n3C)C2)ncc1C#N (stereo partly drawn) [Example 51, 3-((2-((1S,3R)-3-((5-Cyano-4-methoxypyrimidin-2-yl)amino)cyclohexyl)-1-methyl-1H-benzo[d]imidazol-5-yl)carbamoyl)oxirane-2-carboxylic acid]	50 to 500

The next lines start with the values.

IC50 [nM]	SMILES
< 50	C=CC(=O)Nc1ccc2c(c1)C(=O)N([C@H]1CCC[C@@H](Nc3ncc(C(F)(F)F)c(NC)n3)C1)C2 [Example 78, N-(2-((1S,3R)-3-((4-(Methylamino)-5-(trifluoromethyl)pyrimidin-2-yl)amino)cyclohexyl)-3-oxoisoindolin-5-yl)acrylamide]
< 50	C=CC(=O)Nc1ccc2c(c1)C(=O)N([C@H]1CCC[C@@H](Nc3ncc(C#N)c(NC)n3)C1)C2 [Example 67, N-(2-((1S,3R)-3-((5-Cyano-4-(methylamino)pyrimidin-2-yl)amino)cyclohexyl)-3-oxoisoindolin-5-yl)acrylamide]
< 50	C=CC(=O)Nc1ccc2c(c1)nc([C@H]1CCC[C@@H](Nc3ncc(C(F)(F)F)cn3)C1)n2C [Example 72, N-(1-Methyl-2-((1S,3R)-3-((5-(trifluoromethyl)pyrimidin-2-yl)amino)cyclohexyl)-1H-benzo[d]imidazol-5-yl)acrylamide]
< 50	C=CC(=O)Nc1ccc2c(c1)nc([C@H]1CC[C@@H](Nc3ncc(C#N)cn3)C1)n2C [Example 70, N-(2-((1S,3R)-3-((5-Cyanopyrimidin-2-yl)amino)cyclopentyl)-1-methyl-1H-benzo[d]imidazol-5-yl)acrylamide]
< 50	COc1nc(N[C@@H]2CCC[C@H](N3Cc4ccc(NC(=O)/C=C/CN(C)C)cc4C3=O)C2)ncc1C#N [Example 63, (E)-N-(2-((1S,3R)-3-((5-Cyano-4-methoxypyrimidin-2-yl)amino)cyclohexyl)-3-oxoisoindolin-5-yl)-4-(dimethylamino)but-2-enamide]
> 500	C/C=C/C(=O)Nc1ccc2c(c1)C(=O)N([C@H]1CCC[C@@H](Nc3ncc(C#N)c(OC)n3)C1)C2 [Example 64, (E)-N-(2-((1S,3R)-3-((5-Cyano-4-methoxypyrimidin-2-yl)amino)cyclohexyl)-3-oxoisoindolin-5-yl)but-2-enamide]
< 50	C=CC(=O)Nc1ccc2c(c1)nc([C@H]1CCC[C@@H](Nc3ncc(C#N)cn3)C1)n2C [Example 74, N-(2-((1S,3R)-3-((5-Cyanopyrimidin-2-yl)amino)cyclohexyl)-1-methyl-1H-benzo[d]imidazol-5-yl)acrylamide]
< 50	C=CC(=O)Nc1ccc2c(c1)C(=O)N([C@H]1CCC[C@@H](Nc3ncc(C#N)c(N(C)C)n3)C1)C2 [Example 77, N-(2-((1S,3R)-3-((5-Cyano-4-(dimethylamino)pyrimidin-2-yl)amino)cyclohexyl)-3-oxoisoindolin-5-yl)acrylamide]
< 50	C=CC(=O)Nc1ccc2c(c1)C(=O)N([C@H]1CCC[C@@H](Nc3ncc(Cl)cn3)C1)C2 [Example 82, N-(2-((1S,3R)-3-((5-Chloropyrimidin-2-yl)amino)cyclohexyl)-3-oxoisoindolin-5-yl)acrylamide]
< 50	COc1nc(N[C@@H]2CCC[C@H](N3Cc4ccc(NC(=O)CCl)cc4C3=O)C2)ncc1C#N [Example 59, 2-Chloro-N-(2-((1S,3R)-3-((5-cyano-4-methoxypyrimidin-2-yl)amino)cyclohexyl)-3-oxoisoindolin-5-yl)acetamide]
< 50	C=CC(=O)Nc1ccc2c(c1)C(=O)N([C@H]1CCC[C@@H](Nc3ncc(C(F)(F)F)c(OC)n3)C1)C2 [Example 61, N-(2-((1S,3R)-3-((4-Methoxy-5-(trifluoromethyl)pyrimidin-2-yl)amino)cyclohexyl)-3-oxoisoindolin-5-yl)acrylamide]
< 50	C=CC(=O)Nc1cc2nc(N3CC[C@@H](F)[C@@H](Nc4ncc(C(F)(F)F)cn4)C3)n(C)c2cc1C [Example 98, N-(2-((3S,4R)-4-Fluoro-3-((5-(trifluoromethyl)pyrimidin-2-yl)amino)piperidin-1-yl)-1,6-dimethyl-1H-benzo[d]imidazol-5-yl)acrylamide]
< 50	C=CC(=O)Nc1ccc2c(c1)nc(N1C[C@H](F)C[C@@H](Nc3ncc(C#N)cn3)C1)n2C [Example 89, N-(2-((3R,5R)-3-((5-Cyanopyrimidin-2-yl)amino)-5-fluoropiperidin-1-yl)-1-methyl-1H-benzo[d]imidazol-5-yl)acrylamide]
